This passage reports EC50, IC50 and outcome results from PubChem BioAssay AID179 (DTP/NCI, 2004).

The source made the active and inactive calls.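 The calls were made as follows: active = compounds giving half or more protection of infected cells from virus-caused growth loss, again on retest; inactive = the rest.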 Where a SMILES comes first, the peptide text is derived from it. The star is where a group is joined. Cbz = O=C(OCc1ccccc1)*

This assay concerns CEM cells HIV-1 protection, formazan growth assay. The experiment in a line: NCI AIDS Antiviral Assay. The conditions noted are these: for IC50: measured here: growth of uninfected CEM cells. The essentials: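 Protection of CEM cells against HIV-1 was scored from cell growth (soluble formazan) across five concentrations, with parallel uninfected cells. Lack of protection may reflect toxicity.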

As to `Brc1cccc(N=NN2CCCC2)c1`, the EC50 is greater than 200 µM and the concentration for half-maximal inhibition (IC50) is 36.3 µM.

For the molecule `O=C1CCCC1C(O)(C(F)(F)F)C(F)(F)F` (configuration not stated), the EC50 is greater than 200 µM and the IC50 is greater than 200 µM.

With `O=C1C2C=CC(C2)C(c2ccc(O)cc2)N1O` (configuration not stated), the EC50 is greater than 776 µM and the 50% inhibitory concentration (IC50) is greater than 776 µM.

As for `C=C1C(=O)OCC2C(C(=O)O)=CC3C(C)C(C)=CC123` (configuration not stated), the EC50 is greater than 692 µM and the half-inhibitory concentration (IC50) is 11.2 µM.

With `Cc1cc(C2CCCCC2)n(O)c(=O)c1`, the result was inactive.

For `CC(C)CC1NC(=O)CCC(NC(=O)C(Cc2ccc(O)cc2)NC(=O)OCc2ccccc2)C(=O)NC(Cc2ccccc2)C(=O)NC(Cc2ccccc2)NC1=O` (configuration not stated), the EC50 was greater than 200 µM and the IC50 was greater than 200 µM.

Regarding `COC(=O)C(NC(=O)C12CCC(C)(C(=O)O1)C2(C)C)c1cc(C(C)(C)C)c(O)c(C(C)(C)C)c1` (configuration not stated), the EC50 was greater than 20 µM and the IC50 is greater than 20 µM.

As to `COc1ccc2nc3ccc(OC)cc3c(S(=O)CCCl)c2c1` (configuration not stated), the EC50 was greater than 200 µM and the IC50 amounted to 3.63 µM.

In the case of `O=S(=O)(SCCCCSS(=O)(=O)c1ccc(Cl)cc1)c1ccc(Cl)cc1`, the EC50 was 8.13 µM and the 50% inhibitory concentration (IC50) is 9.55 µM.

With `O=C1NC(=O)C(=Cc2cccc(Cl)c2)C(=O)N1`, the EC50 is greater than 145 µM and the concentration for half-maximal inhibition (IC50) was greater than 145 µM.

Consider `O=c1c2ccccc2n2c(=S)[nH]nc2n1-c1ccccc1`, for which the EC50 was greater than 200 µM and the IC50 is greater than 200 µM.

Regarding `C[C@@H]1C[C@@H]2OC(=O)[C@]3(C)[C@H]2[C@@H](OC3(C)O)[C@]2(C)C(=O)C=C[C@@H]12` (some centres not stated), the EC50 is greater than 316 µM and the concentration for half-maximal inhibition (IC50) was found to be 5.75 µM.

Regarding `CCCCn1c2ccccc2c2ccc3c(c21)C(=O)C=CC3=O`, the EC50 was greater than 17.4 µM and the half-maximal inhibitory concentration (IC50) is greater than 17.4 µM.

As to `CCOC(=O)C(CC(=O)OC)NC(=O)C(CC(=O)OC)NC(=O)C(CC(=O)OC)NC(=O)C(CC(=O)OC)NC(=O)OCc1ccccc1` (configuration not stated) (Cbz-D(OMe)D(OMe)D(OMe)D(OMe)-OEt; configuration not given here), the EC50 was greater than 200 µM and the half-maximal inhibitory concentration (IC50) was greater than 200 µM.

`N#CC(C(=O)CCC(=O)Nc1cccc(C(F)(F)F)c1)c1ccccc1` (configuration not stated): the EC50 was greater than 692 µM and the IC50 was greater than 692 µM.

Consider `CN(C)CCC(/C=C/c1ccccc1)=N\Nc1ccc(Cl)cc1Cl`, for which the result was inactive.

As to `CC(=O)n1[nH]c(=O)n(-c2ccccc2)c1=O`, the EC50 is greater than 200 µM and the IC50 is greater than 200 µM.

Molecule `CC[C@@H]1OC2(C)CC(S(=O)(=O)c3ccccc3)CC1O2` (some centres not stated) registered an EC50 of 26.3 µM and an IC50 of 170 µM.

Take `O=Cc1ccc(/C=C2\C=Cc3ccccc32)cc1`: the EC50 is greater than 58.9 µM and the IC50 was greater than 58.9 µM.

`CC12CCCCC1(C)C2Sc1ccccc1` (configuration not stated): the result was inactive.

Regarding `CCOC(=O)N(c1ccccc1)N(CC)C(=O)/C(C)=N/Nc1ccc([N+](=O)[O-])cc1`, the outcome was inactive.

Take `Clc1ccc(N=c2ccc3ccccc3[oH+]2)cc1.Clc1ccc(N=c2ccc3ccccc3[oH+]2)cc1.[Co]`: the result was inactive.

On to `CCOP(=O)(OCC)/C(C#N)=C/c1cccc(Br)c1`, for which the outcome was inactive.

Turning to `NC(CSS(=O)(=O)O)=NCCSc1ccc(Cl)cc1`, the EC50 was greater than 200 µM and the IC50 came to 60.3 µM.

Turning to `CCN(CC)CCO/N=C1\CC[C@H]2[C@@H]3CCc4cc(OC)ccc4[C@H]3CC[C@]12C`, the EC50 is greater than 20 µM and the concentration for half-maximal inhibition (IC50) came out at 2.69 µM.

As for `Cc1nn(C(=O)Cc2ccccc2)c2c1C(c1ccccc1[N+](=O)[O-])SC(N)=N2` (configuration not stated), the EC50 was greater than 501 µM and the IC50 worked out at 87.1 µM.

With `CCCNC(=O)Cn1c(-c2ccccc2)cc2ccccc21`, the EC50 is greater than 200 µM and the IC50 is greater than 200 µM.

On to `CCC[N+](C)(C)CCCNC(=O)c1c(O)c2ccccc2[nH]c1=O`, for which the EC50 is 178 µM and the concentration for half-maximal inhibition (IC50) came out at 182 µM.

With `O=C1/C(=C/c2ccccc2Cl)Cc2ccccc21`, the EC50 was greater than 5.37 µM and the IC50 was greater than 5.37 µM.

On to `O=C1/C(=C/c2ccc(O)c(O)c2)CCc2ccccc21`, for which the EC50 was greater than 162 µM and the IC50 came to 2.4 µM.

Consider `Cc1ccsc1C(=S)Nc1ccc(Cl)c(/C=N/OC(C)(C)C)c1`, for which the EC50 is 0.141 µM and the IC50 worked out at 14.1 µM.

Take `CCN(C(=O)N[C@H](C(=O)N[C@@H](C)C(=O)OC)C(C)C)c1ccccc1`: the EC50 was greater than 200 µM and the IC50 turned out to be 35.5 µM.

`O=C1C(=Nc2ccc(Nc3ccccc3)cc2)Oc2ccccc21`: the EC50 is greater than 200 µM and the half-maximal inhibitory concentration (IC50) was determined as 3.09 µM.

On to `Clc1ccc(-c2cc[s+]s2)cc1`, for which the EC50 was greater than 200 µM and the IC50 is 33.1 µM.

With `CCC1=C(OC)c2ncccc2C(=O)C1=O`, the result was inactive.

Consider `O=C(O)CSC(=S)NCCNC(=S)SCC(=O)O`, for which the EC50 was greater than 95.5 µM and the half-inhibitory concentration (IC50) is 72.4 µM.

For `O=C(N/C(=C\c1ccc(Br)cc1)c1nc2ccccc2s1)c1ccccc1`, the EC50 is greater than 22.9 µM and the IC50 was greater than 22.9 µM.

Consider `BrCc1ccc(C[P+](c2ccccc2)(c2ccccc2)c2ccccc2)cc1`, for which the EC50 is greater than 200 µM and the IC50 is 3.89 µM.

For the molecule `CN(C)/C=N\c1c(C#N)c(CC#N)nn1-c1ccccc1`, the EC50 is greater than 200 µM and the IC50 is greater than 200 µM.

Consider `COc1ccc(-c2nc3ccccc3c(=S)n2OC(C)=O)cc1`, for which the EC50 is greater than 200 µM and the IC50 is 1.7 µM.

For `COc1cc(O)c2c(=O)c3c(OC)c(O)ccc3oc2c1`, the EC50 was greater than 200 µM and the IC50 was determined as 56.2 µM.

Take `O=C(CCc1ccc(O)cc1)c1c(O)cc(O)cc1OC1OC(CO)C(O)C(O)C1O` (configuration not stated): the EC50 is greater than 200 µM and the IC50 was greater than 200 µM.

Regarding `COc1ccc(CC2(O)C3CC4CCC2C4C3)cc1` (configuration not stated), the EC50 was greater than 200 µM and the IC50 is 87.1 µM.

`CC(=O)OC1C(OCc2cc(=O)oc3c4c(c5c(c23)OC(C)(C)CC5)O[C@@H](C)[C@H](C)[C@@H]4O)OC(CO)C(O)C1O` (some centres not stated): the EC50 was greater than 200 µM and the IC50 stood at 43.7 µM.

For the molecule `CC12CCC(C(S(=O)(=O)Nc3ccccc3)C1=O)C2(C)C` (configuration not stated), the EC50 is greater than 200 µM and the half-inhibitory concentration (IC50) was 138 µM.

`CCCCCCCCCN=C(N)CSSCC(N)=NCCCCCCCCC`: the EC50 is greater than 200 µM and the IC50 turned out to be 19.5 µM.

In the case of `CC1(C)C/C=C\CCC(O)C(O)CCC(C)(C)C1=O` (configuration not stated), the EC50 was greater than 200 µM and the half-maximal inhibitory concentration (IC50) is greater than 200 µM.

Consider `Cc1ccc(NC(=S)/N=C/C(C(=O)c2ccccc2)=C(\O)c2ccccc2)c(C)c1`, for which the EC50 was greater than 200 µM and the IC50 was 31.6 µM.

Turning to `CCOC(=O)NC(C(F)(F)F)(C(F)(F)F)P(=O)(OC(C)C)OC(C)C`, the EC50 is greater than 200 µM and the IC50 is greater than 200 µM.

Turning to `O=C(NC1CCCCC1)/C(=C\c1ccc2c(c1)OCO2)NC(=O)c1ccccc1`, the EC50 is greater than 200 µM and the half-inhibitory concentration (IC50) was greater than 200 µM.

As for `COc1cc(/C=C(\C)[N+](=O)[O-])cc(OC)c1`, the EC50 was greater than 200 µM and the IC50 came to 3.39 µM.

As for `CSc1nc(-c2ccccc2)nc(C(C#N)C#N)n1`, the outcome was inactive.

Turning to `Cc1ccc(C)c(N2C(=O)C(=O)C(c3nc4ccccc4o3)/C(=N/N)C2=O)c1` (configuration not stated), the outcome was inactive.

Turning to `C/C(CC(=O)Nc1ccc(C)cc1)=N\NC(N)=S`, the EC50 is greater than 490 µM and the half-maximal inhibitory concentration (IC50) was found to be 245 µM.

With `COC(=O)c1c(O)c(C#N)c2[nH]c3ccccc3n2c1=O`, the EC50 was greater than 100 µM and the IC50 is greater than 100 µM.

As for `COc1ccc(/C(C#N)=C(/N)SCc2ccccc2Cl)cc1`, the outcome was inactive.

For the molecule `CC(=O)NC(C(=O)O)(C(=O)O)C(C)CC(=O)O` (configuration not stated), the EC50 is greater than 200 µM and the IC50 is greater than 200 µM.

On to `O=C1Oc2ccccc2C(=O)/C1=C/N1C(=O)N/C(=C\c2ccccc2O)C1=O`, for which the EC50 was greater than 200 µM and the IC50 came out at 123 µM.

As to `COc1cc(C2C(Cl)C(=O)N2NC(=O)c2ccc(NC(C)=O)cc2)cc(Br)c1O` (configuration not stated), the EC50 is greater than 200 µM and the half-maximal inhibitory concentration (IC50) turned out to be 162 µM.

On to `CC(=O)OCC1OC(n2ncc(=O)[nH]c2=O)C(OC(C)=O)C1OC(C)=O` (configuration not stated), for which the EC50 was greater than 2 µM and the IC50 was 1.05 µM.

For `C/C1=C/C(O)C/C(C)=C\C(O)C(=O)/C=C/C2C(CC1)C2(C)C` (configuration not stated), the EC50 was greater than 200 µM and the IC50 is greater than 200 µM.

Take `O=S(=O)(c1ccccc1)n1c(C(O)c2ccccc2)cc2ccccc21` (configuration not stated): the EC50 is greater than 200 µM and the half-inhibitory concentration (IC50) was 17.8 µM.

In the case of `Cc1ccc(NC2=NCCO2)c2c1CCC2`, the EC50 was greater than 200 µM and the IC50 was 33.9 µM.

Regarding `CC(C)=CCc1c(O)cc(O)c2c1O[C@H](c1cc3c(cc1O)O[C@@H](c1ccc(O)cc1)C3c1cc(O)cc(O)c1)CC2=O` (some centres not stated), the EC50 is greater than 77.6 µM and the IC50 amounted to 36.3 µM.

Regarding `Cc1ccc(Nc2nc(NS(=O)(=O)c3cc(C)c(Cl)cc3S)n[nH]2)cc1`, the half-maximal effective concentration (EC50) was greater than 191 µM and the IC50 came to 178 µM.

As to `COc1ccc2c(ccc(=O)n2C)c1`, the EC50 is greater than 200 µM and the IC50 is greater than 200 µM.

Regarding `c1ccc(CN2CCC3(CC2)SSC2(CCN(Cc4ccccc4)CC2)S3)cc1`, the EC50 was greater than 100 µM and the IC50 was 87.1 µM.

With `Nc1ccn(CC(=O)NCCCO)c(=O)n1`, the EC50 is greater than 200 µM and the half-inhibitory concentration (IC50) was greater than 200 µM.

Turning to `O=c1oc2ccccc2nc1/C=C(\O)c1ccc(Cl)cc1`, the EC50 is greater than 200 µM and the IC50 was found to be 64.6 µM.

On to `c1ccc2c(c1)c1c(n2CCOCCN2CCOCC2)CCCC1`, for which the EC50 is greater than 200 µM and the half-inhibitory concentration (IC50) was 112 µM.

`NC(=O)C(=CN1C(=O)/C(=C/c2ccc([N+](=O)[O-])cc2)SC1=S)C(N)=O`: the EC50 is greater than 200 µM and the concentration for half-maximal inhibition (IC50) came to 30.2 µM.

Take `CN(CC#N)C1CCC[C@]1(O)/C=C/[Si](C)(C)C` (some centres not stated): the EC50 was greater than 102 µM and the half-inhibitory concentration (IC50) was greater than 102 µM.

In the case of `O=S(O)CCCCCSSc1ccccc1`, the outcome was inactive.

Take `N=C(/C=C/c1ccc(-c2cn3cc(/C=C/C(=N)N4CCOCC4)ccc3n2)cc1)N1CCOCC1`: the EC50 is 162 µM and the half-inhibitory concentration (IC50) amounted to 186 µM.
